Legend:
[1] = tested on: CCRF-CEM; assay: Cytotoxicity against human CCRF-CEM cells assessed as reduction in cell viability after 72 hrs by resazurin dye based assay; type: functional
[2] = tested on: ADR5000 cell line; assay: Cytotoxicity against human CEM/ADR5000 cells overexpressing P-gp assessed as reduction in cell viability after 72 hrs by resazurin dye based assay; type: functional; conditions: ADR5000, 72 h
[3] = tested on: Plasmodium falciparum; assay: Antiplasmodial activity against Plasmodium falciparum 3D7 ring stage parasites infected in human erythrocytes after 72 hrs by SYBR Green 1 dye based fluorescence assay; type: functional, organism-based; conditions: 3D7, 72 h
[4] = tested on: HFF; assay: Cytotoxicity against human HFF cells at 1 uM; type: cell-based
[5] = tested on: Human betaherpesvirus 5; assay: Potency index, ratio of ganciclovir EC50 to compound EC50 for recombinant HCMV AD169 expressing GFP infected in human foreskin fibroblast; type: functional
[6] = tested on: Human betaherpesvirus 5; assay: Potency index, ratio of artesunic acid EC50 to compound EC50 for recombinant HCMV AD169 expressing GFP infected in human foreskin fibroblast; type: functional

Compound	EC50 [1] [nM]	EC50 [2] [nM]	EC50 [3] [nM]	Activity [4] [%]	Ratio EC50 [5]	Ratio EC50 [6]
CC1=C(CCCOC(=O)CC(=O)OCCOC(=O)CCC(=O)O[C@@H]2O[C@@H]3O[C@@]4(C)CC[C@H]5[C@H](C)CC[C@@H]([C@H]2C)[C@@]35OO4)C(=O)C(C(C)C)=CC1=O	80	8200	4.4			
CC1=C(CCCOC(=O)CCC(=O)O[C@@H]2O[C@@H]3O[C@@]4(C)CC[C@H]5[C@H](C)CC[C@@H]([C@H]2C)[C@@]35OO4)C(=O)C(C(C)C)=C(CCCOC(=O)CCC(=O)O[C@@H]2O[C@@H]3O[C@@]4(C)CC[C@H]5[C@H](C)CC[C@@H]([C@H]2C)[C@@]35OO4)C1=O	200	200	4.3			
CC1=C(CCOC(=O)CCC(=O)O[C@@H]2O[C@@H]3O[C@@]4(C)CC[C@H]5[C@H](C)CC[C@@H]([C@H]2C)[C@@]35OO4)C(=O)C(C(C)C)=CC1=O	1200	1000	8.2			
CC1=C(CCCCOC(=O)C[C@H]2O[C@@H]3O[C@@]4(C)CC[C@H]5[C@H](C)CC[C@@H]([C@H]2C)[C@@]35OO4)C(=O)C(C(C)C)=CC1=O			17.5			
CC1=C(CCCCOC(=O)CCC(=O)OCC(C[C@H]2O[C@@H]3O[C@@]4(C)CC[C@H]5[C@H](C)CC[C@@H]([C@H]2C)[C@@]35OO4)C[C@H]2O[C@@H]3O[C@@]4(C)CC[C@H]5[C@H](C)CC[C@@H]([C@H]2C)[C@@]35OO4)C(=O)C(C(C)C)=CC1=O (stereo partly specified)	2.7	7870	12.2	50		
CC1=C(CCCOC(=O)CCC(=O)O[C@@H]2O[C@@H]3O[C@@]4(C)CC[C@H]5[C@H](C)CC[C@@H]([C@H]2C)[C@@]35OO4)C(=O)C(C(C)C)=CC1=O	500	1300	6.9			
CC1=C(CCCCOC2O[C@@H]3O[C@@]4(C)CC[C@H]5[C@H](C)CC[C@@H]([C@H]2C)[C@@]35OO4)C(=O)C(C(C)C)=CC1=O (stereo partly specified)	300	200	3.7		5	8
CC1=C(CCCOC(=O)C[C@H]2O[C@@H]3O[C@@]4(C)CC[C@H]5[C@H](C)CC[C@@H]([C@H]2C)[C@@]35OO4)C(=O)C(C(C)C)=CC1=O			54			
CC1=C(CCCOC2O[C@@H]3O[C@@]4(C)CC[C@H]5[C@H](C)CC[C@@H]([C@H]2C)[C@@]35OO4)C(=O)C(C(C)C)=CC1=O (stereo partly specified)	200	200	5.9		5	8
CC1=C(CCCCOC(=O)CCC(=O)O[C@@H]2O[C@@H]3O[C@@]4(C)CC[C@H]5[C@H](C)CC[C@@H]([C@H]2C)[C@@]35OO4)C(=O)C(C(C)C)=C(CCCCOC(=O)CCC(=O)O[C@@H]2O[C@@H]3O[C@@]4(C)CC[C@H]5[C@H](C)CC[C@@H]([C@H]2C)[C@@]35OO4)C1=O	6070	5660	12.1	50		
CC1=C(CCCCOC(=O)CCC(=O)O[C@@H]2O[C@@H]3O[C@@]4(C)CC[C@H]5[C@H](C)CC[C@@H]([C@H]2C)[C@@]35OO4)C(=O)C(C(C)C)=CC1=O	1400	800	7.7			
C[C@H]1[C@H](OC(=O)CCC(=O)O)O[C@@H]2O[C@@]3(C)CC[C@H]4[C@H](C)CC[C@@H]1[C@@]24OO3 [ARTESUNATE]	400	100	8.2			
COc1cccc2c1C(=O)c1c(O)c3c(c(O)c1C2=O)C[C@@](O)(C(=O)CO)C[C@@H]3O[C@H]1C[C@H](N)[C@H](O)[C@H](C)O1 [DOXORUBICIN]	9	23300				
CC1=CC(=O)C(C(C)C)=CC1=O [THYMOQUINONE]			> 80000			

Reference: ChEMBL document CHEMBL4145629, “Synthesis of Thymoquinone-Artemisinin Hybrids: New Potent Antileukemia, Antiviral, and Antimalarial Agents” (ACS Med Chem Lett, 2018)
